# Test results taken from US20230312652A1, “NOVEL PEPTIDES AND USES THEREOF” (Aarhus Universitet, priority 2020, published 2023).
# Where a SMILES comes first, the peptide text is derived from it.
# Legend:
# CREB [1] = assay: CREB activation in striatum and hippocampus of wild-type mice after IV injection; type: in vivo, mouse; settings: 0.26 mg/kg IV, 1 hour after injection
# Description: To assess this, 8 weeks old wild-type mice were injected intravenously with either 0.26 mg/kg of peptide P1 or LP1 dissolved in saline. 1 hour after the injection, the mice were sacrificed by cervical dislocation and striatal tissue was isolated by dissection and immediately lysed using a TissueLyser in lysis buffer containing cOmplete and DTT. The samples were subsequently homogenized by sonication. The phosphorylation of CREB on serine 133 was subsequently validated by western blotting. The levels of phosphorylated CREB were normalized to the corresponding beta-actin levels. Student's t-test was used for statistical analysis.
# [2] = Liver microsome stability, mouse; type: in vitro ADME; settings: 2 μM, up to 60 minutes
# Description: Reactions were stopped at timepoints between 0-60 min. and samples analysed by LCMS.
# [3] = system: HTT in GM04719 fibroblasts; assay: Huntingtin levels in Huntington's patient-derived fibroblasts (GM04719), western blotting; type: cell-based, human
# Description: GM04719 was seeded at 30,000-50,000 per well in a 96-well. The following day, the cells were treated with 1 uM of P1 and incubated at 37° C. and 5% CO2 at timepoints 0-24 hours. Hereafter, the cells were lysed in RIPA lysis buffer containing cOmplete cocktail protease inhibitor. Total Huntingtin levels were analysed using antibody mab2166 (Sigma-Aldrich) by western blotting and normalized to beta-actin. To determine, whether P1 also clears the healthy allele, we further assessed levels of total HTT in fibroblast derived from a healthy individual (GM01650E), bought from Coriell Biobank.
# To get a direct measurement and further validation of the selective degradation of the disease-allele another study was carried out in GM04719 fibroblasts. Here, at 30,000-50,000 were seeded per well in a 96-well. The following 3 days, the cells were treated with 1 uM of P1 every 24 hour and during this incubated at 37° C. and 5% CO2. 24 hours after third treatment, the cells were lysed in RIPA lysis buffer containing cOmplete cocktail protease inhibitor. Mutated Huntingtin levels were measured using antibody, which only detects the disease-allele (MW1 ab). Total Huntingtin levels were likewise analysed using antibody mab2166 and both were normalized to beta-actin.
# [4] = system: R6/2 mice (mouse model of Huntington's); assay: Stereological analysis of regional brain volume in R6/2 mice; type: in vivo; settings: 13 mg/kg SC daily, 8 to 12 weeks of age
# Description: The brain was cut using a fine razor blade and one hemisphere (right) was directly put into ice-cold 4% PFA in PBS for 24 hours, and then transferred to a 30% sucrose PBS solution for 48 hours and stored at 4° C.
# The PFA fixed hemispheres were imbedded in TissueTec and sliced on a cryostat at 50 μm thickness. For stereology, every 5th section was sampled using the principle of systematic random sampling, giving a section sampling fraction (SSF)=1/5.
# The sections were mounted on chrome-gelatin-coated slides and Nissl stained with a 0.25% thionine solution (thionin, Sigma T3387). Image acquisition and analysis was performed using the newCAST system (Visiopharm, Horsholm, Denmark). This system consists of an Olympus light microscope (Olympus BX50, Olympus, Denmark) modified for stereology with a digital camera (PixeLINK PLA686C, Canada) and a motorized microscope stage (Prior H138 with controller H29, Cambridge, UK). The newCAST software was interfaced to the digital camera superimposing the counting frames on the live images.
# The volume estimation was carried out using the Cavalieri principle for quantifying the total volume of the hippocampus, striatum and mid-part of the cortex (6 slides used for this) using a 4× lens.
# CREB [5] = assay: CREB activation in GRN+/- cortical neurons, western blotting; type: cell-based, mouse; settings: 1 uM, 20 minutes
# Description: In this study, it was examined whether peptide P1 could increase phosphorylation of CREB (ser133) similar to wild-type neurons. To study the activation of CREB, cortical neurons were isolated from GRN+/−p0 […] mice and seeded in a density of 500,000 per well. After 7 days in vitro the neurons were stimulated with peptide P1 at 1 uM in neurobasal A media at 37° C. and 5% CO2 and incubated for 20 minutes. Following, the neurons were lysed in lysis buffer containing DTT and cOmplete cocktail protease inhibitor and subsequently sonicated to disrupt the nuclear membrane. The phosphorylation of CREB on serine 133 was subsequently validated by western blotting. The levels of phosphorylated CREB were normalized to the corresponding beta-actin levels. Student's t-test was used for statistical analysis.
# hERG potassium channels = target: T1, hERG potassium channels (Homo sapiens, UniProt Q12809); assay: hERG inhibition, manual patch-clamp in CHO cell line; type: cell-based; settings: 0.1-30 uM, room temperature
# T1 construct: expressed in transfected cells
# Description: P1 (0.1-30 uM) was evaluated in vitro in a concentration-response (relationship of the effect on electric current passing through hERG (human ether-à-go-go-related gene) potassium channels (a surrogate for IKr, the rapidly activating, delayed rectifier cardiac potassium current) stably expressed in a CHO cell line using a manual patch-clamp technique.
# The hERG current was recorded at room temperature using whole-cell patch-clamp techniques. Output signals from the patch-clamp amplifier were digitized and low-pass filtered at 2.9 kHz. The recording was controlled with Patchmaster Pro software. The recording chamber with cells seeded was mounted on an inverted microscope stage. A cell in the recording chamber was randomly picked up for testing. The cell was continuously perfused from the perfusion system. A micropipette filled with ICS was used as recording electrode in the manual patch-clamp study. The micropipette was prepared on the day of the patchclamp experiment using glass capillaries (GC150TF-10, Harvard Apparatus Co., UK). From the holding potential of −80 mV, the voltage was increased to +60 mV for 850 ms to open the hERG channels. After that, the voltage was decreased to −50 mV for 1275 ms, causing a “rebound” or tail current, the peak tail current was measured and collected for data analysis. Finally, the voltage was decreased to the holding potential (−80 mV). […]
# T1 sequence (Q12809 whole entry): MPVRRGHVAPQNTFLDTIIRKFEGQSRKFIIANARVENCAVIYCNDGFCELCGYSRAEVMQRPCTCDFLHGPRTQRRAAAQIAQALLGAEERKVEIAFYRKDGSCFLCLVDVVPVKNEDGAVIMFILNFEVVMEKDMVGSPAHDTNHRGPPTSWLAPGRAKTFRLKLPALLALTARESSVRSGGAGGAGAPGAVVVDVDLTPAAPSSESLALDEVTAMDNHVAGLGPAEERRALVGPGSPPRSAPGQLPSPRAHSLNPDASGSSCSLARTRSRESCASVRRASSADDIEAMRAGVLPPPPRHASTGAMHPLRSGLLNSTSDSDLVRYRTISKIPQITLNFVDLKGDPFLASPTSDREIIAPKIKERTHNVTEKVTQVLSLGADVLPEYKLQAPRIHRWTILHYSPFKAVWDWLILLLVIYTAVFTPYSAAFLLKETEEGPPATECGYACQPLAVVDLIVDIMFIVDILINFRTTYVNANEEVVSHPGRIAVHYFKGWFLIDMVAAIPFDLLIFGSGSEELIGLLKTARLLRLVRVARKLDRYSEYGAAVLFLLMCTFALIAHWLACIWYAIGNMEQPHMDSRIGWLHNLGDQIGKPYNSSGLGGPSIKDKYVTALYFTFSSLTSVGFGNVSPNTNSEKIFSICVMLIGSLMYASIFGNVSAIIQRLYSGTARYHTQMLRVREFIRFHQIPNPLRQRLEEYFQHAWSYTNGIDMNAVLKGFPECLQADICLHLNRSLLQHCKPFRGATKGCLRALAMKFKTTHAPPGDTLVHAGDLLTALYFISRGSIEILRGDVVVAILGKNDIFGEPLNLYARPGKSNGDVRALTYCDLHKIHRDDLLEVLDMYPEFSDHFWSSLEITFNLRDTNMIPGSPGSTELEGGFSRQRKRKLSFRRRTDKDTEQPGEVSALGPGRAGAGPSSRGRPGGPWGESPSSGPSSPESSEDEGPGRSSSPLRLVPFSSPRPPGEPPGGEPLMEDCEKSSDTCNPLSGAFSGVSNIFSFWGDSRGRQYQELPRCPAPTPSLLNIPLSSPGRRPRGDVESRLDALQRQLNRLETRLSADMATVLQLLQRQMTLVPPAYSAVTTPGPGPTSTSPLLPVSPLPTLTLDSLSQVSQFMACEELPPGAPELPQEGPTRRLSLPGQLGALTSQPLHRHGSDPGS
smiles,measurement,setting,value
"CSCC[C@@H]1NC(=O)[C@H](C(C)C)NC(=O)[C@H](CC(=O)O)NC(=O)[C@H](CCC(=O)O)NC(=O)[C@H](CCC(=O)O)NC(=O)[C@H](Cc2c[nH]cn2)NC(=O)[C@H](CCC(=O)O)NC(=O)[C@H](C(C)C)NC(=O)[C@@H]2CCCN2C(=O)[C@H](CCC(=O)O)NC(=O)[C@H]([C@@H](C)O)NC1=O [Peptide P1, [MTEPVEHEEDV]] (cyclo(MTEPVEHEEDV))",pCREB (S133) in hippocampus,CREB [1],performed markedly better than LP1
same,pCREB (S133) in striatum,CREB [1],performed markedly better than LP1
same,clearance and stability in liver microsomes,[2],low clearance and high stability
same,"reduction of mutated Huntingtin (disease-allele, MW1 antibody)",[3]; 1 uM every 24 hour for 3 days,20%
same,total Huntingtin (mab2166),[3]; 1 uM every 24 hour for 3 days,not lowering the total amount of Huntingtin significantly
same,total HTT levels,"[3]; 1 uM, 8 hours of stimulation",reduces total HTT levels
same,cortical volume,[4],tendency of increasing
same,hippocampal volume,[4],tendency of increasing
same,phosphorylation of CREB (S133),CREB [5],able to activate CREB
same,effect on hERG current,hERG potassium channels,no effect on hERG current
